Like-named read-outs stand apart in the source and are kept apart here. Bridge positions count the residues as written; N and C are the ends. Square brackets hold non-standard residues; d marks the D form. Peptide text beside a SMILES is read from it. * marks the point of attachment. Ileψ(thiazoline)Cys = CC[C@H](C)[C@H](N)C1=N[C@H](C(=O)*)CS1; dOrn = NCCC[C@@H](N)C(=O)O
How the values were obtained:
[1] = test system: enkephalinase; details: cited from earlier work; for CSF EKA / plasma EKA: human sufferers
[2] = with soya-lecithin, n-octanol-phosphate buffer; cited from earlier work
[3] = test system: paw edema by carrageenin; details: topical 1% ointment, rats; cited from earlier work
[4] = oral oil-based paste, free access to food, three of six animals; cited from earlier work
[5] = test system: rat skin; details: applied to rat skin; cited from earlier work
[6] = rats; cited from earlier work
[7] = test system: mice; details: cited from earlier work
[8] = test system: nucleus accumbens enkephalins; details: administered into the nucleus accumbens; cited from earlier work
[9] = test system: rats; details: morphine 5 mg/kg, D-phenylalanine 100 mg/kg; similar degree; cited from earlier work
[10] = test system: cats; details: peptide 0.35 mg/kg and D-phenylalanine 10 mg/kg; cited from earlier work
[11] = test system: rats; details: injections in rats; cited from earlier work
[12] = test system: mice; assay: Alcohol preference in mice (acceptance and 14 day preference test); format: in vivo; details: d-phenylalanine 500 mg/kg/day 18 days, hydrocinnamic acid 25 micrograms icv
[13] = 250 mg/kg, reversed by naloxone; cited from earlier work
[14] = in vivo; cited from earlier work
[15] = test system: rats; details: naloxone 0.1 mg/kg; species not stated; cited from earlier work
[16] = test system: SH-SY5Y human neuroblastoma cells; details: cited from earlier work
[17] = test system: patients receiving opiates for chronic non-malignant pain; details: concurrent treatment, author's clinical experience; cited from earlier work
[18] = test system: patients with CRPS1; details: 3 of 5 patients; unchanged in the other 2; cited from earlier work
[19] = test system: Over-Eating; details: 400 mcg, cited from earlier work
[20] = test system: obese women; details: cited from earlier work
[21] = test system: Over-Eating; details: cited from earlier work
[22] = test system: Over-Eating; details: after six months, p < 0.001 between groups; cited from earlier work
[23] = test system: obese subjects genotyped for DRD2; assay: Chromium picolinate body composition as a function of DRD2 genotype; format: in vivo, human; details: subjects possessing a DRD2 A1 allele
Protocol: A Case Study: Chromium and Dopamine Genes. The inventors embarked on a study with chromium picolinate to test out the principles of nutrigenomics. In this study they genotyped obese subjects for the dopamine D2 receptors gene (DRD2). The subjects were assessed for scale weight and for percent body fat. The subjects were divided into matched placebo and chromium picolinate (CrP) groups. […] Moreover, the inventors propose for the first time that mixed effects now observed with CrP administration in terms of body composition, may be resolved by typing the patient via DRD2 genotyping prior to treatment with chromium salts.

[24] = test system: rat caudate nucleus synaptosomal preparation; details: cited from earlier work
[25] = test system: brain dopamine and serotonin flux; details: intravenously, cited from earlier work
[26] = test system: intracranial self-stimulation; details: nucleus accumbens microinjections; cited from earlier work
[27] = test system: release of serotonin in the lateral hypothalamus; details: systemic administration, long lasting and dose dependent; cited from earlier work
[28] = test system: methadone patients; assay: Compliance with Trexan after rapid detoxification of methadone patients; format: in vivo, human; details: P<0.0001
Excerpt: It may also be interesting too further test this hypothesis with the sublingual combination of the partial opiate mu receptor agonist buprenorphrine.

[29] = molecular target: T1, CYP2D6 (Homo sapiens, UniProt P10635); details: extensive but not poor metabolizers of debrisoquine/sparteine; cited from earlier work
T1 construct: host or cells: patients on methadone (in vivo)

[30] = exercise training combined with CrP supplementation

T1 sequence (P10635 whole entry): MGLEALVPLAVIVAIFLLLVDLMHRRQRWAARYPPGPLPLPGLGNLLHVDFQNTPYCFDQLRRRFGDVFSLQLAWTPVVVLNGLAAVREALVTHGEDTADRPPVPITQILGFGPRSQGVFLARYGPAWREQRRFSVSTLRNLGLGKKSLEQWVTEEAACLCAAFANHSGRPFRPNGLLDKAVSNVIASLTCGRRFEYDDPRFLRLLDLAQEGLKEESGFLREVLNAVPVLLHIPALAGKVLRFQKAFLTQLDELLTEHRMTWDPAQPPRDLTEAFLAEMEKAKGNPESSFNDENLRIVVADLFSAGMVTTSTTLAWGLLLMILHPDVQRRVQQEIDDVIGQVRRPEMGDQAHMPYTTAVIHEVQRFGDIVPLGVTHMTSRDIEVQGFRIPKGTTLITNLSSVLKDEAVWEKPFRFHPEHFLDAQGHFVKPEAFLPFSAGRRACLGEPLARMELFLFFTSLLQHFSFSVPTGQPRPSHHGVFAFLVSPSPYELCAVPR

For `C[C@H](CS)C(=O)N1CCC[C@H]1C(=O)O` [captopril], the “CSF EKA” value [1] is given as “decreased”.
For `CC(C(=O)O)c1cccc(C(=O)c2ccccc2)c1` (racemic) [Ketoprofen], the partition into n-octanol [2] is given as “improves”, the “paw edema by carrageenin” value [3] is given as “markedly inhibited” and the concentrations in plasma [4] is given as “no detectable concentrations”.
For `CC(C)[C@@H]1CC[C@@H](C)C[C@H]1O` [l-menthol], the “Plasma concentrations of KPF with addition of the enhancer to gel ointment” value [5] is listed as “no significant enhancing effect”.
For `CCCCCCCCC1CCCCC1=O` (centres unmarked) [2-n-octylcyclohexanone], the “percutaneous absorption of ketoprofen and indomethacin from gel ointments” value (“percutaneous absorption” for short) [6] is listed as “Pronounced effects”.
In the case of `COc1ccc(C[C@H](N)C(=O)N[C@H]2[C@@H](O)[C@H](n3cnc4c(N(C)C)ncnc43)O[C@@H]2CO)cc1` [puromycin], the analgesia [7] is listed as “long-lasting, naloxone-reversible analgesia”.
In the case of `O=C(O)Cc1ccccc1Nc1c(Cl)cccc1Cl` [diclofenac sodium], the “paw edema by carrageenin” value [3] is listed as “markedly inhibited”.
For `COc1ccc2c(c1)c(CC(=O)O)c(C)n2C(=O)c1ccc(Cl)cc1` [indomethacin], the “paw edema by carrageenin” value [3] is given as “markedly inhibited”.
For `N[C@H](Cc1ccccc1)C(=O)O` [D-phenylalanine], the “antinociception induced by intra-periaqueductal gray injection of morphine” value [8] is listed as “potentiated”, the pain reaction thresholds [9] is listed as “increase” and the analgesia [7] is listed as “long-lasting, naloxone-reversible analgesia”. For the same molecule, the “analgesia on coadministration with peptide IKB-901” value [10] was “enhances analgesia”, the “CWS analgesia and morphine analgesia” value [11] was “decrease CWS analgesia while increasing morphine analgesia” and the alcohol preference [12] was “significantly reduced”. The analgesia [13] was “elicits analgesia”, the “plasma EKA” value [1] was “decreased” and the analgesia [14] was “naloxone reversible analgesia”.
In the case of `C=CCN1CC[C@]23c4c5ccc(O)c4O[C@H]2C(=O)CC[C@@]3(O)[C@H]1C5` [Naloxone], the “antinociception induced by intra-periaqueductal gray injection of morphine” value [8] is given as “attenuated” and the “analgetic effect of peptide IKB-901” value [15] is given as “prevents”.
For `OC[C@H]1O[C@@H](OCCc2ccc(O)cc2)[C@H](O)[C@@H](O)[C@@H]1O` [Salidroside], the “H2O2-induced loss of mitochondrial membrane potential and elevation of intracellular calcium level” value ([16]; SH-SY5Y cells) is listed as “dose-dependently restored” and the antioxidant property [16] is listed as “potent”.
For `CC(C)(C)C1CCC(=O)CC1` [4-tert-butylcyclohexanone], the “percutaneous absorption” value [6] is given as “significantly lower”.
In the case of `NC(Cc1ccccc1)C(=O)O` (racemic) [DL-phenylalanine (DLPA), DL-phenylalanine], the “pain relief in patients receiving opiates” value [17] is listed as “potentiate”.
For `O=[N+]([O-])O[C@H]1CO[C@H]2[C@@H]1OC[C@H]2O[N+](=O)[O-]` [ISDN, isosorbide dinitrate], the “Visual Analog Scale pain” value [18] is given as “declined”.
In the case of `CN1CC[C@]23c4c5ccc(O)c4O[C@H]2[C@@H](O)C=C[C@H]3[C@H]1C5` [morphine], the pain reaction thresholds [9] is listed as “increase”.
In the case of `CC1CCCC(C)C1=O` (centres unmarked) [2,6-dimethyl], the “percutaneous absorption” value [6] is listed as “significantly lower”.
In the case of Chromium Picolinate, the “weight (p < 0.001) and body fat (p < 0.004) lost compared with placebo” value ([19]; 90 days) is listed as “significantly more”, the “reduction in body fat” value ([19]; p < 0.001) is listed as “greater reduction” and the body composition ([19]; p < 0.004) is listed as “improve body”. The weight change ([20]; CrP supplementation alone, 63 days) was “gain, while”, the “insulin response to an oral glucose load” value [20, 30] was “lowered” and the weight change [20, 30] was “loss”. For the same molecule, the “body composition, body fat, nonfat mass” value ([21]; 00 mcg or 400 mcg, two double-blind placebo controlled studies) was “body composition improvement, loss of body fat, gain in nonfat mass”, the “changes in Body Mass composition indicies compared with placebo” value ([21]; 200 and 400 mcg, 72 days) was “about significant” and the lean body mass [22] was “an increase in”. The “any parameter of weight and body fat change” value [23] was “no significance”.
In the case of `O=C(O)CCc1ccccc1` [hydrocinnamic acid], the alcohol preference [12] is reported as “significantly reduced”.
For `CN1[C@@H]2CC[C@H]1C[C@@H](OC(c1ccccc1)c1ccccc1)C2` [Cogentin], the “release of dopamine formed from 14C-phenylalanine” value (“release of dopamine formed” for short) [24] is given as “increased”.
For `CC(C)CC(N(C)C)C1(c2ccc(Cl)cc2)CCC1` (centres unmarked) [sibutramine], the “serotonin and dopamine concentrations in the striatal and hypothalamic brain regions” value ([25]; higher doses) is listed as “increased” and the “serotonin and dopamine concentrations in dialysates” value ([25]; low doses) is listed as “no effect”.
For `CCn1cc(C(=O)O)c(=O)c2ccc(Cc3ccccc3)nc21` [Amfoelic acid], the “release of dopamine formed” value [24] is given as “net release”.
In the case of `C[C@H](NC(=O)[C@@H](CC(=O)NO)Cc1ccccc1)C(=O)O` [kelatrophan], the intracranial self-stimulation [26] is given as “reduced”.
In the case of `CC[C@H](C)[C@H](N)C1=N[C@H](C(=O)N[C@@H](CC(C)C)C(=O)N[C@H](CCC(=O)O)C(=O)N[C@H](C(=O)N[C@H]2CCCCNC(=O)[C@H](CC(N)=O)NC(=O)[C@@H](CC(=O)O)NC(=O)[C@H](Cc3cnc[nH]3)NC(=O)[C@@H](Cc3ccccc3)NC(=O)[C@H]([C@@H](C)CC)NC(=O)[C@@H](CCCN)NC2=O)[C@@H](C)CC)CS1` [bacitracin] ({Ileψ(thiazoline)Cys}-L[dE]IK[dOrn]I[dF]H[dD]N; lactam 4-C), the analgesia [7] is listed as “long-lasting, naloxone-reversible analgesia”.
In the case of `O=C(O)CNC(=O)C(CS)Cc1ccccc1` (centres unmarked) [thiorphan], the “CSF EKA” value [1] is given as “decreased”, the “plasma EKA” value [1] is given as “decreased” and the “potency as enkephalinase inhibitor among the three drugs” value ([1]; plasma and CSF) is given as “most potent”.
For `N[C@@H](Cc1c[nH]c2ccc(O)cc12)C(=O)O` [5-HTP, 5-hydroxy-1-tryptophan], the 5-HT in dialysates [27] is listed as “immediate increase”.
In the case of `CC(C)(C)C1CCCCC1=O` (centres unmarked) [2-tert-butylcyclohexanone], the “percutaneous absorption” value [6] is given as “markedly enhanced”.
For `CC(N)Cc1ccccc1` (centres unmarked) [Amphetamine], the “release of dopamine formed” value [24] is given as “increased”.
For `Cl.O=C1CC[C@@]2(O)[C@H]3Cc4ccc(O)c5c4[C@@]2(CCN3CC2CC2)[C@H]1O5` [Trexan®], the “average number of days of compliance” value [28] was 37 days.
In the case of `CC12CCC(CC1)C(C)(C)O2` [1,8-cineole], the “Plasma concentrations of KPF with addition of the enhancer to gel ointment” value [5] is given as “no significant enhancing effect”.
In the case of `Fc1ccc([C@@H]2CCNC[C@H]2COc2ccc3c(c2)OCO3)cc1` [paroxetine], the “steady-state plasma concentrations of (R)-methadone” value [29] is given as “increases”.
